Our source for the EC50 values is PMC4010227 (Journal of computer-aided molecular design, 2010).

Some results are limits rather than exact numbers.

This experiment has as its target F508del-CFTR (Homo sapiens, UniProt P13569, DEL508-508). Nature of the experiment: Ussing chamber short-circuit current, acute cumulative dose response. The experiment is classed as cell-based.

Take EPX-108380: the EC50 was < 1 µM.

One may read the EC50 as the concentration that produces a half-maximal response. High values mean a need for much substance, low ones an effect from little substance.
